Measurements: patent US20200046619A1, “Deodorizing Composition Comprising Zinc Neodecanoate” (GIVAUDAN SA, priority 2016, published 2020)

What was measured:
[1] = Solubility test of zinc salts in model aerosol base formulation; assay type: physicochemical; conditions: 4% zinc salt, 12% cyclomethicone, 84% pentane; agitated several hours at room temperature, stood overnight
From the text: The solubility of several zinc salts was explored using the following model aerosol base formulation: • 4% zinc salt • 12% cyclomethicone • 84% pentane
(Pentane was used as a surrogate for isobutane/propane mix as it is easier to handle in a laboratory.)
Each salt and aerosol formulation was placed in a sealed glass vial that was agitated for several hours at room temperature. The resulting suspensions/solutions were allowed to stand overnight and any remaining solid matter present was noted.

[2] = White marks: visible solid residue on black cloth after aerosol spraying; assay type: physicochemical; conditions: approximately 3 g aerosol (4% zinc neodecanoate, 12% cyclomethicone, 84% propellant) dispensed; compared with zinc ricinoleate and aluminium chlorohydrate aerosols
Experimental: Aerosols were prepared using the following three test formulations, respectively: • 4% zinc neodecanoate, 12% cyclomethicone, 84% propellant • 4% zinc ricinoleate, 12% cyclomethicone, 84% propellant • 10% aluminium chlorohydrate, 0.8% disteardimonium hectorite, 12% cyclomethicone, 76.2% propellant (propellant=isobutane/propane mix)
Several card templates were prepared where a large X-shaped hole was present in each template. Each template was then placed over a black piece of cloth. The aerosols were shaken well, and then approximately 3 g of one of the three aerosols was dispensed over each template hole. Several minutes were allowed for any propellant to evaporate and the presence of any visible solid residues was noted.

[3] = tested on: subject's axilla malodour; assay: Sensory test comparing zinc neodecanoate and zinc ricinoleate: perceived malodour intensity of axillae rated by trained panel; assay type: in vivo, human; conditions: for perceived malodour intensity: 0-100 line scale, 24 hours after application of 1.0 g aerosol (4% zinc salt, 12% cyclomethicone, 84% propellant) to axilla, 10 male subjects
Experimental: Aerosols were prepared using the following two test formulations, respectively: • 4% zinc neodecanoate, 12% cyclomethicone, 84% propellant • 4% zinc ricinoleate, 12% cyclomethicone, 84% propellant (propellant=isobutane/propane mix)
5 days prior to testing, the male subjects substituted their normal body wash with an unperfumed product (Sanex 0% Bodywash) and were asked to only use a specific deodorant supplied (Lynx Attract for Him).
On the morning before the test, the male subjects were asked to shower using an unperfumed shower gel provided and not use any antiperspirant product or apply any other fragranced products.
Subjects reported to a panel suite in the morning in two groups for test product application.
The administrator applied 1.0 g of each product to each subject's axilla. Each subject wore both of the test formulations (one on each axilla region). The manner in which each test formulation was applied (left or right axilla) was randomised. Each of a subject's axilla was then coded with a random code number.
The subjects were asked not to shower until after the test had been completed the next day. The subjects were also provided with a list of rules, by which they had to abide for the duration of the test. The rules included no swimming and no gym activity between test formulation application and assessment.
The subjects' axillae were thereafter tested by sensory panellists. The members of the sensory panels had been selected on a basis of their olfactory sensory acuity and had thereafter received training for a period of 4-6 months. […]
The sensory panellists were asked to rate the perceived malodour intensity for each of the subject's axilla using a 0-100 line scale. The order of samples assessed was pre-determined using a balanced randomisation. The axillae were assessed in a sequential monadic way. […]
The subjects were separated into two groups to be assessed by the panellists and each group was assessed by 22 panellists.
The data was analysed using an analysis of variance and multiple comparison test with a confidence level of 95%.

| Substance | remaining solid matter present (solubility) [1] | visible solid residue on black cloth [2] | perceived malodour intensity [3] | malodour intensity compared with underarms treated with zinc ricinoleate ([3]; analysis of variance and multiple comparison test, confidence level 95%, 24 hours after application) |
| --- | --- | --- | --- | --- |
| zinc neodecanoate | without any solid present | did not leave a powdered residue | 12.1 (+/−0.8) | significantly lower malodour intensity |
| zinc ricinoleate [reference compound] | – | – | 14.0 (+/−0.8) | – |
